In patent US20240391900A1, “RIP1 KINASE INHIBITOR AND USE THEREOF” (SIRONAX (BEIJING) CO., LTD., priority 2021, published 2024) one finds EC50 and Kp data, which are given here for 21 molecules.

Data set [1] concerns HT-29 human colon cancer cells. Nature of the data set: In vitro biological activity assay: inhibition of TNFα/SmacM/Z_VAD FMK-induced programmed necrosis, CellTiter-Glo viability. In kind it is cell-based. The following applies: HT-29 cells, necrosis induced with TNF-α 100 ng/mL, SmacM 100 nM, Z_VAD-FMK 10 μM, overnight, cell viability by chemiluminescence. On the procedure: In order to verify the inhibitory effect of the compounds of the present disclosure on programmed necrosis at the cellular level, a type of cells closely related to the RIP1 pathway, namely HT-29 human colon cancer cells, were selected. The used activation mode is a combination of tumor necrosis factor (TNFα), cysteine aspartate activator mimic (SmacM) and pan-caspase inhibitor Z_VAD FMK, and the cell viability was calculated by detecting chemiluminescence values, thus obtaining the biological activity of the compound inhibiting the programmed necrosis of cells.
Cell line: HT-29 (ATCC® HTB-38™)
• 2.1. The Growth Status of HT-29 Cells was Regularly Checked to Ensure their Normal Growth. • 2.2. McCOY's 5A culture medium containing 10% FBS was preheated in a 37° C. water bath for 30 minutes. When the culture medium was ready for use, the cell passage and inoculation was performed in a Class II safety cabinet with aseptic technique. • 2.3. In a T75 culture flask, when the growth density of cells reached the abundance of approximately 80%, the culture medium was aspirated and cells were washed twice with pre-warmed PBS. • 2.4. 2-3 mL of trypsin (Gibco, catalog number 25200-056) was added and the T75 culture flask was transferred to a 37° C. incubator. • 2.5. After 3-5 minutes, the side of the culture flask was tapped and examined under a microscope for detachment of the cells to the flask. If necessary, the cells were placed back into the incubator to wait for another 5-10 minutes until 85% of the cells were detached from each other. • 2.6. 6-9 mL of complete cell culture medium was quickly added to terminate the trypsin reaction, and then the cells were transferred to a sterile 15 mL centrifuge tube. The cells were pelleted by centrifugation at 300 g for 5-7 minutes in a centrifuge, and then the supernatant was decanted. • 2.7. The cells were resuspended in 10 mL of fresh cell culture medium and the cells were counted by using a hemocytometer. • 2.8. 3,000 cells contained in 100 μL were inoculated into each well of a sterile 96-well cell culture plate (Corning 3903) and cultured overnight at 37° C. under 5% CO2.
• 3.1. All batches of compounds were dissolved in dimethyl sulfoxide (DMSO) to prepare a 20 mM stock. • 3.2. 3 μL of 20 mM stock of each compound was added to 27 μL of DMSO and mixed thoroughly, and then diluted at a dilution ratio of […] (20 μL compound+40 μL DMSO) until the 10-12 points ended. After the compounds were diluted, they were set aside for use. • 3.3. The cell culture plate was taken out from the incubator, washed once with PBS, and replaced with a fresh culture medium free of serum. A mixture of TNF-α (100 ng/mL), SMAC mimic (SmacM, 100 nM) and Z_VAD-FMK (10 μM) was added to induce the programmed necrosis in HT-29 cells. • 3.4. The compound dilution plate was prepared, 0.5 μL of the diluted compound was added to the corresponding 96-well plate, and mixed gently. Two duplicate wells were prepared for each compound. • 3.5. The treated 96-well plate to which the compounds had been added was placed back into the 37° C. incubator containing 5% CO2 and incubated overnight.
The luminescence cell viability detection kit was used to calculate the activity of the compound by measuring the ATP content in viable cells. • 4.1. The CellTiter-Glo® buffer and dry powdered substrate were equilibrated to room temperature before use. • 4.2. The CellTiter-Glo® substrate was resuspended with Cell Titer-Glo® buffer, then homogeneously mixed by gently vortexing. • 4.3. The cell culture plate was taken out and equilibrated at room temperature for 10 minutes (usually not suitable if more than 30 minutes). • 4.4. 20 μL of enzyme/substrate mixture was added into the 96-well assay plate with a multi-channel pipettor. • 4.5. The 96-well assay plate was placed on a shaker and the content was mixed for 2-3 minutes to promote the cell lysis. • 4.6. […]
(Cellular ATP, detected with luciferase, serves as a proxy for viable cell number.)

Data set [2] can be described thus: Rapid brain distribution assay (LC-MS/MS, brain tissue/plasma ratio). The class given is in vivo. The following applies: mouse, ip, CD1 mice, intraperitoneal, grouped compounds, brain tissue and plasma taken one hour after administration, read-out: B/P. On the procedure:
The contents in plasma and tissue samples were measured by LC-MS/MS to obtain the ratio of the concentration in the brain tissue sample to that in the plasma sample, and compounds with blood-brain penetration could be quickly screened.
• 3.1. A group of compounds (usually 3-4 compounds, the molecular weight difference between each other was greater than 5), weighing 1-2 mg of each compound, were added into the same 4 mL weighing bottle. • 3.2. A mixed solvent of 10% DMSO+20% polyethylene glycol-15-hydroxystearate+70% H2O was used to prepare each group to a volume of 1.5 mL-2 mL. • 3.3. The mixture was ultrasonically vortexed until a homogeneous solution was obtained for intraperitioneal administration.
• 4.1. Three CD1 mice were prepared for each group and weighed. • 4.2. The administration volume was 10 mL/kg, and the mice were administered intraperitoneally. • 4.3. Timing was started after administration, and plasma samples and brain tissue samples were taken one hour later. • 4.4. The brain tissue sample was weighed, and then 4 fold volume of physiological saline was added. The resulting mixture was homogenized, and frozen at −20° C. until analysis.
• 5.1. The exact molecular weight of a compound was found from the compound information table. • 5.2. The corresponding parent ions and fragment ions were found, and the mass spectrometry condition and the liquid phase (chromatography) method were optimized to find the appropriate condition and method.
• 6.1. Plasma sample (5-fold dilution): 10 μL of the plasma sample was taken, and 40 μL of the blank plasma sample and 50 μL of the corresponding blank tissue sample were added. • 6.2 Tissue sample processing: 50 μL of the tissue sample (brain, kidney, liver and the like) was taken, and 50 μL of the blank plasma sample was added. • 6.3. The above tissue sample and the diluted plasma sample were taken, and 500 μL of the internal standard solution was added to precipitate the protein. The resulting mixture was vortexed for 2 minutes, stored by freezing at −20° C. for 1 hour and centrifuged at 3800 rpm for 15 minutes at 4° C. The supernatant was taken, 5-fold diluted with 50% MeOH, and then vortexed for 2 minutes, ready for measurement.
The sample was detected by using an appropriate LC-MS/MS method.
Distribution ratio of tissue/plasma=(peak area of compound in tissue/peak area of internal standard)/(peak area of compound in plasma/peak area of internal standard)

For the molecule `C(#Cc1cnc2cccnn12)c1cccc(-n2cc3c(n2)C(c2ccccc2)CC3)n1` (stereo not drawn) [Compound 1, 3-((6-(6-phenyl-5,6-dihydrocyclopenta[c]pyrazol-2 (4H)-yl)pyridin-2-yl)ethynyl)imidazo[1,2-b]pyridazine], the EC50 (as a rule, the concentration that produces a half-maximal response) in data set [1] is at most 100 nM. Also, the Kp at 1 h in data set [2] was 0.735.

On to `Nc1ncc(C#Cc2cncc(-n3nc4c(n3)C(C3CCCCC3)CC4)c2)cn1` (stereo not drawn) [Compound 2, 5-((5-(4-cyclohexyl-5,6-dihydrocyclopenta[d][1,2,3]triazol-2 (4H)-yl)pyridin-3-yl)ethynyl)pyrimidin-2-amine], for which the EC50 in data set [1] was at most 100 nM. For the same molecule, in data set [2], the Kp at 1 h is 0.62.

Regarding `Nc1ncc(C#CC2CCC(n3cc4c(n3)C(c3ccccc3)CC4)C2)cn1` (stereo not drawn) [Compound 3, 5-((3-(6-phenyl-5,6-dihydrocyclopenta[c]pyrazol-2 (4H)-yl)cyclopentyl)ethynyl)pyrimidin-2-amine], the EC50 in data set [1] is at most 100 nM. For the same molecule, the Kp at 1 h in data set [2] turned out to be 3.96.

As to `Cn1c(-n2cc3c(n2)C(c2ccccc2)CC3)cc(C#Cc2cnc(N)nc2)cc1=O` (stereo not drawn) [Compound 4, 4-((2-aminopyrimidin-5-yl)ethynyl)-1-methyl-6-(6-phenyl-5,6-dihydrocyclopenta[c]pyrazol-2 (4H)-yl)pyridine-2 (1H)-one], the 50% effective concentration (EC50) in data set [1] is at most 100 nM. The Kp at 1 h in data set [2] was 1.44.

For the molecule `C(#Cc1cnc2cccnn12)c1cccc(-n2cc3c(n2)C(c2ccccc2)CC3)c1` (stereo not drawn) [Compound 5], in data set [1], the EC50 is at most 100 nM. In addition, in data set [2], the Kp at 1 h was found to be 0.75.

With `C(#Cc1cnc2cccnn12)c1cncc(-n2cc3c(n2)C(c2ccccc2)CC3)c1` (stereo not drawn) [Compound 6, 3-((5-(6-phenyl-5,6-dihydrocyclopenta[c]pyrazol-2 (4H)-yl)pyridin-3-yl)ethynyl)imidazo[1,2-b]pyridazine], the EC50 in data set [1] was at most 100 nM. In addition, in data set [2], the Kp at 1 h is 1.24.

As to `C(#Cc1cnc2cccnn12)c1ccnc(-n2cc3c(n2)C(c2ccccc2)CC3)n1` (stereo not drawn) [Compound 7, 3-((2-(6-phenyl-5,6-dihydrocyclopenta[c]pyrazol-2 (4H)-yl)pyrimidine-4-yl)ethynyl)imidazo[1,2-b]pyridazine], the EC50 in data set [1] lay within 100 to 1000 nM. Also, the Kp at 1 h in data set [2] was 0.12.

Regarding `Nc1ncc(C#Cc2cc(-n3cc4c(n3)C(c3ccccc3)CC4)ncn2)cn1` (stereo not drawn) [Compound 9, 5-((6-(6-phenyl-5,6-dihydrocyclopenta[c]pyrazol-2 (4H)-yl)pyrimidine-4-yl)ethynyl)pyrimidin-2-amine], the EC50 in data set [1] lay in the range of 100 to 1000 nM. The Kp at 1 h in data set [2] is 2.85.

Turning to `NC(=O)c1ncc(C#Cc2cncc(-n3cc4c(n3)C(c3ccccc3)CC4)c2)cn1` (stereo not drawn) [Compound 10, 5-((5-(6-phenyl-5,6-dihydrocyclopenta[c]pyrazol-2 (4H)-yl)pyridin-3-yl)ethynyl)pyrimidine-2-carboxamide], the EC50 in data set [1] is above 1000 nM. Besides, the Kp at 1 h in data set [2] was 1.34.

As to `Oc1ccc(C#Cc2cncc(-n3cc4c(n3)C(c3ccccc3)CC4)c2)nn1` (stereo not drawn) [Compound 11, 6-((5-(6-phenyl-5,6-dihydrocyclopenta[c]pyrazol-2 (4H)-yl)pyridin-3-yl)ethynyl)pyridazine-3-ol], the EC50 in data set [1] is at most 100 nM. Moreover, the Kp at 1 h in data set [2] worked out at 1.23.

In the case of `Nc1ncc(C#Cc2cncc(-n3cc4c(n3)[C@H](c3ccccc3)CC4)c2)cn1` [Compound 14], in data set [1], the concentration giving a half-maximal response (EC50) was at most 100 nM. Moreover, in data set [2], the Kp at 1 h worked out at 2.92.

In the case of `C(#Cc1cnc2ccccn12)c1cccc(-n2cc3c(n2)C(c2ccccc2)CC3)c1` (stereo not drawn) [Compound 15, 3-((3-(6-phenyl-5,6-dihydrocyclopenta[c]pyrazol-2 (4H)-yl)phenyl)ethynyl)imidazo[1,2-a]pyridine], the EC50 in data set [1] is at most 100 nM. Also, the Kp at 1 h in data set [2] was 0.406.

As to `Nc1ccc(C#Cc2cncc(-n3cc4c(n3)C(c3ccccc3)CC4)c2)cn1` (stereo not drawn) [Compound 16, 5-((5-(6-phenyl-5,6-dihydrocyclopenta[c]pyrazol-2 (4H)-yl)pyridin-3-yl)ethynyl)pyridine-2-amine], the EC50 in data set [1] is at most 100 nM. In addition, the Kp at 1 h in data set [2] is 2.24.

On to `Cc1ncc(C#Cc2cccc(-n3cc4c(n3)C(c3ccccc3)CC4)c2)n1C` (stereo not drawn) [Compound 24, 2-(3-((1,2-dimethyl-iH-imidazole-5-yl)ethynyl)phenyl)-6-phenyl-2,4,5,6-tetrahydrocyclopenta[c]pyrazole], for which, in data set [1], the EC50 is at most 100 nM. Moreover, in data set [2], the Kp at 1 h was 1.33.

As for `Nc1ncc(C#Cc2ccnc(-n3cc4c(n3)C(c3ccccc3)CC4)c2)cn1` (stereo not drawn) [Compound 28], in data set [1], the EC50 was at most 100 nM. Besides, in data set [2], the Kp at 1 h worked out at 1.91.

Turning to `C(#Cc1cncc(-n2cc3c(n2)C(c2ccccc2)CC3)c1)c1ccccc1` (stereo not drawn) [Compound 30, 6-phenyl-2-(5-(phenylethynyl)pyridin-3-yl)-2,4,5,6-tetrahydrocyclopenta[c]pyrazole], the EC50 in data set [1] is above 1000 nM. The Kp at 1 h in data set [2] amounted to 0.429.

Consider `Nc1ncc(C#Cc2cncc(-n3cc4c(n3)[C@H](c3ccccc3)CC4)c2)s1` [Compound 31], for which, in data set [1], the EC50 is at most 100 nM. In addition, in data set [2], the Kp at 1 h is 2.38.

Take `C(#Cc1cccc(-n2cc3c(n2)C(c2ccccc2)CC3)c1)c1cccnc1` (stereo not drawn) [Compound 32, 6-phenyl-2-(3-(pyridin-3-ethynyl)phenyl)-2,4,5,6-tetrahydrocyclopenta[c]pyrazole]: the EC50 in data set [1] is at most 100 nM. In addition, in data set [2], the Kp at 1 h stood at 1.27.

For `COc1ccc(C#Cc2cccc(-n3cc4c(n3)C(c3ccccc3)CC4)c2)cn1` (stereo not drawn) [Compound 33, 2-(3-((6-methoxypyridin-3-yl)ethynyl)phenyl)-6-phenyl-2,4,5,6-tetrahydrocyclopenta[c]pyrazole], in data set [1], the half-maximal effective concentration (EC50) was at most 100 nM. In addition, the Kp at 1 h in data set [2] worked out at 0.563.

Take `Nc1ncc(C#Cc2cccc(-n3cc4c(n3)C(c3ccccc3)CC4)c2)cn1` (stereo not drawn) [Compound 36, 5-((3-(6-phenyl-5,6-dihydrocyclopenta[c]pyrazol-2 (4H)-yl)phenyl)ethynyl)pyrimidin-2-amine]: the EC50 in data set [1] was at most 100 nM. Besides, the Kp at 1 h in data set [2] turned out to be 3.62.

Turning to `C(#Cc1cnc2cccnn12)c1cc(-n2cc3c(n2)C(c2ccccc2)CC3)ccn1` (stereo not drawn) [Compound 37], in data set [1], the EC50 was at most 100 nM. In addition, in data set [2], the Kp at 1 h stood at 1.06.
